Test results published in ChEMBL document CHEMBL3046524, “Synthesis and biological evaluation of N 1,N 2-bis-[4-(t-amino)-2-butynyl]phthalamides as oxotremorine and acetylcholine antagonists” (Med Chem Res, 2013).
Calls of active or inactive are those of the source. No cut-off for these calls is given here.

What was measured:
Ileum [1] = experiment: Ionotropic activity in Cavia porcellus (guinea pig) ileum assessed as concentration required to inhibit acetylcholine-induced contraction after 15 min by physiographic analysis; format: functional
Ileum [2] = experiment: Ionotropic activity in Cavia porcellus (guinea pig) ileum assessed as inhibition of acetylcholine-induced contraction after 15 min by physiographic analysis; format: functional, tissue-based; conditions: 0.25 h, read-out: pA2 (converted)
Mus musculus [3] = experiment: Antitremor activity in ip dosed Mus musculus (mouse) assessed as concentration required to inhibit oxotremorine-induced tremor effect administered 15 to 20 min prior to oxotremorine challenge measured 15 to 20 min post oxotremorine challenge; format: functional
Mus musculus [4] = experiment: Antitremor activity in ip dosed Mus musculus (mouse) assessed as inhibition of oxotremorine-induced tremor effect administered 15 to 20 min prior to oxotremorine challenge measured 15 to 20 min post oxotremorine challenge; format: functional, organism-based

| SMILES | INH (Ileum [1]) | Kb (Ileum [2]) [nM] | INH (Mus musculus [3]) [µmol/kg] | inhibition (Mus musculus [4]) |
| --- | --- | --- | --- | --- |
| CC1CCCCN1CC#CCNC(=O)c1ccccc1C(=O)NCC#CCN1CCCCC1C (stereo not given) | 1.2 ×10⁻⁶ mol/L | 2000 |  |  |
| O=C1c2ccccc2C(=O)N1CC#CCN1CCCCC1 | 1.6 ×10⁻⁶ mol/L | 1580 | 7.6 |  |
| O=C(NCC#CCN1CCCCCCC1)c1ccccc1C(=O)NCC#CCN1CCCCCCC1 | 5 ×10⁻⁶ mol/L | 1260 |  |  |
| CC1CCCCN1CC#CCN1C(=O)c2ccccc2C1=O (stereo not given) | 1.2 ×10⁻⁶ mol/L | 1260 | 9.6 |  |
| O=C(NCC#CCN1CCCCC1)c1ccccc1C(=O)NCC#CCN1CCCCC1 | 1.6 ×10⁻⁶ mol/L | 2510 | 8 |  |
| CC1CCCC(C)N1CC#CCNC(=O)c1ccccc1C(=O)NCC#CCN1C(C)CCCC1C (stereo not given) | 3 ×10⁻⁶ mol/L | 1580 |  | inactive |
| O=C1c2ccccc2C(=O)N1CC#CCN1CCCCCCC1 | 8 ×10⁻⁷ mol/L | 794 | 2.4 |  |
| CC1CCCC(C)N1CC#CCN1C(=O)c2ccccc2C1=O (stereo not given) | 2 ×10⁻⁶ mol/L | 2000 |  | inactive |
| CN1[C@@H]2CC[C@H]1C[C@@H](OC(=O)C(CO)c1ccccc1)C2 (stereo not given in full) [ATROPINE] | 3.7 ×10⁻⁹ mol/L | 3.98 | 2.8 |  |
